Test system: TCF4/β-catenin transcription (TOPFlash) in SW480 cells
Assay: Reporter gene assay (TOPFlash luciferase)
Assay type: cell-based
Details: Homo sapiens, SW480, Table 4; Reporter gene assay as described in Example 6; read-out: IC50
Experimental: SW480 cells were transfected with the usage of Superfect™ transfect reagent (Qiagen, 301307). Cells were trypsinized briefly 1 day before transfection and plated on 6 well plate (5×10^5 cells/well) so that they were 50-80% confluent on the day of transfection.
Four microgram (TOPFlash) and one microgram (pRL-null) of DNAs were diluted in 150 μl of serum-free medium, and 30 μl of Superfect™ transfect reagent was added. The DNA-Superfect mixture was incubated at room temperature for 15 min, and then, 1 ml of 10% FBS DMEM was added to this complex for an additional 3 hours of incubation. While complexes were forming, cells were washed with PBS twice without antibiotics.
The DNA-Superfect™ transfect reagent complexes were applied to the cells before incubating at 37° C. at 5% CO2 for 3 hours. After incubation, recovery medium with 10% FBS was added to bring the final volume to 1.18 ml. After 3 hours incubation, the cells were harvested and reseeded to 96 well plate (3×10^4 cells/well). After overnight incubation at 37° C. at 5% CO2, the cells were treated with Compound A for 24 hours. Finally, the activity was checked by means of luciferase assay (Promega, E1960).

Compound	IC50
CN1CC(=O)N2[C@@H](Cc3ccc(O)cc3)C(=O)N(Cc3cccc4occc34)C[C@@H]2N1C(=O)NCc1ccccc1 [Compound 40]	7 µM
C=CCN1CC(=O)N2[C@@H](Cc3ccc(O)cc3)C(=O)N(Cc3cccc(N4CCCC4)c3)C[C@@H]2N1C(=O)NCc1ccccc1 [Compound 154]	3.2 ± 0.4 µM
CN1CC(=O)N2[C@@H](Cc3ccc(O)cc3)C(=O)N(Cc3cccc(N4CCCC4=O)c3)C[C@@H]2N1C(=O)NCc1ccccc1 [Compound 150]	12.7 ± 0.7 µM
C#CCn1ncc2cccc(CN3C[C@H]4N(C(=O)CN(C)N4C(=O)NCc4ccccc4)[C@@H](Cc4ccc(O)cc4)C3=O)c21 [Compound 105]	16.6 ± 2.7 µM
C=CCN1CC(=O)N2[C@@H](Cc3ccc(O)cc3)C(=O)N(Cc3cccc4c3OCO4)C[C@@H]2N1C(=O)NCc1ccccc1 [Compound 202]	0.7 ± 0.1 µM
CCCN1CC(=O)N2[C@@H](Cc3ccc(O)cc3)C(=O)N(Cc3ccccc3)C[C@@H]2N1C(=O)NCc1ccccc1 [Compound 168]	3.5 ± 0.3 µM
C=CCN1CC(=O)N2[C@@H](Cc3ccc(O)cc3)C(=O)N(Cc3ccc(F)c(F)c3)C[C@@H]2N1C(=O)NCc1ccccc1 [Compound 178]	1.2 ± 0.1 µM
C=CCN1CC(=O)N2[C@@H](Cc3ccc(OP(=O)(O)O)cc3)C(=O)N(Cc3ccc4c(c3)OCCO4)C[C@@H]2N1C(=O)NCc1ccccc1 [Compound 212]	1.3 ± 0.3 µM
C=CCN1CC(=O)N2[C@@H](Cc3ccc(O)cc3)C(=O)N([C@H](C)c3ccccc3)C[C@@H]2N1C(=O)NCc1ccccc1 [Compound 183]	12.8 ± 0.9 µM
C#CCN1CC(=O)N2[C@@H](Cc3ccc(O)cc3)C(=O)N(Cc3ccc(F)cc3F)C[C@@H]2N1C(=O)NCc1ccccc1 [Compound 144]	2.1 ± 0.2 µM
CN1CC(=O)N2[C@@H](Cc3ccc(O)cc3)C(=O)N(Cc3cccc4nnn(C)c34)C[C@@H]2N1C(=O)NCc1ccccc1 [Compound 75]	50.5 ± 18.4 µM
C=CCN1CC(=O)N2[C@@H](Cc3ccc(O)cc3)C(=O)N(Cc3ccccc3)C[C@@H]2N1C(=O)NCc1ccc(Cl)c(Cl)c1 [Compound 207]	1.5 ± 0.1 µM
CCN(C)c1cccc(CN2C[C@H]3N(C(=O)CN(C)N3C(=O)NCc3ccccc3)[C@@H](Cc3ccc(O)cc3)C2=O)c1 [Compound 46]	4.4 µM
C[C@H](c1ccc(F)c(N(C)C)c1)N1C[C@H]2N(C(=O)CN(C)N2C(=O)NCc2ccccc2)[C@@H](Cc2ccc(O)cc2)C1=O [Compound 59]	5.3 ± 1.3 µM
C=CCN1CC(=O)N2[C@@H](Cc3ccc(O)cc3)C(=O)N(Cc3cccc4sc(-c5ccccc5)nc34)C[C@@H]2N1C(=O)NCc1ccccc1 [Compound 221]	4.7 ± 3.5 µM
CN1CC(=O)N2[C@@H](Cc3ccc(O)cc3)C(=O)N(Cc3ccc(Cl)c(Cl)c3)C[C@@H]2N1C(=O)NCc1ccccc1 [Compound 29]	3.8 µM
Cc1ccc(CC2C(=O)N(CCc3ccccc3)CC3N2C(=O)CN(C)N3C(=O)Nc2ccc(C(F)(F)F)cc2)cc1 (stereo not shown) [Compound 2]	12.6 µM
CN1CC(=O)N2[C@@H](Cc3ccc(O)cc3)C(=O)N(Cc3ccccc3SC(F)(F)F)C[C@@H]2N1C(=O)NCc1ccccc1 [Compound 31]	11.9 µM
C[C@@H]1[C@H]2N(C(=O)CN(C)N2C(=O)NCc2ccccc2)[C@@H](Cc2ccc(O)cc2)C(=O)N1Cc1ccc(Cl)c(N(C)C)c1 [Compound 83]	46.4 ± 3.7 µM
CC(C)N(C)c1cccc([C@H](C)N2C[C@H]3N(C(=O)CN(C)N3C(=O)NCc3ccccc3)[C@@H](Cc3ccc(O)cc3)C2=O)c1 [Compound 66]	11.8 µM
C=CCN1CC(=O)N2[C@@H](Cc3ccc(O)cc3)C(=O)N(Cc3ccc(Cl)c4cccnc34)C[C@@H]2N1C(=O)NCc1ccccc1 [Compound 137]	0.6 ± 0.1 µM

Now from value to compound:

IC50	Compound
1.2 ± 0.1 µM	C=CCN1CC(=O)N2[C@@H](CN([C@H](C)c3ccccc3)C(=O)[C@@H]2Cc2ccc(O)cc2)N1C(=O)NCc1ccccc1 [Compound 184]
4.6 ± 0.4 µM	CN1CC(=O)N2[C@@H](Cc3ccc(O)cc3)C(=O)N(Cc3cccc4cnn(Cc5ccc(N)cc5)c34)C[C@@H]2N1C(=O)NCc1ccccc1 [Compound 104]
2.4 ± 0.3 µM	COC(=O)c1ccccc1Cn1ncc2c(CN3C[C@H]4N(C(=O)CN(C)N4C(=O)NCc4ccccc4)[C@@H](Cc4ccc(O)cc4)C3=O)cccc21 [Compound 99]
14.5 µM	CN1CC(=O)N2C(CN(Cc3ccccc3F)C(=O)[C@@H]2Cc2ccc(O)cc2)N1C(=O)NCc1ccccc1 (stereo partly shown) [Compound 8]
13.3 ± 1.4 µM	CN1CC(=O)N2[C@@H](Cc3ccc(O)cc3)C(=O)N(Cc3ccc4cccnc4c3)C[C@@H]2N1C(=O)NCc1ccccc1 [Compound 95]
7.1 µM	COc1ccccc1CN1C[C@H]2N(C(=O)CN(C)N2C(=O)NCc2ccccc2)[C@@H](Cc2ccc(O)cc2)C1=O [Compound 26]
0.9 ± 0.1 µM	C=CCN1CC(=O)N2[C@@H](Cc3ccc(O)cc3)C(=O)N(Cc3cccc4scnc34)C[C@@H]2N1C(=O)NCc1ccc(Cl)c(Cl)c1 [Compound 210]
7.3 ± 1.1 µM	CN1CC(=O)N2[C@@H]([C@H](O)c3ccc(O)cc3)C(=O)N(Cc3ccc(F)cc3F)C[C@@H]2N1C(=O)NCc1ccccc1 [Compound 113]
16.5 ± 4.8 µM	CN(Cc1ccccc1)c1cccc(CN2C[C@H]3N(C(=O)CN(C)N3C(=O)NCc3ccccc3)[C@@H](Cc3ccc(O)cc3)C2=O)c1 [Compound 79]
4.3 ± 0.8 µM	CN1CC(=O)N2[C@@H](Cc3ccc(NC=O)cc3)C(=O)N(Cc3cccc4ccccc34)C[C@@H]2N1C(=O)NCc1ccccc1 [Compound 68]
68.1 ± 8.9 µM	CN1CC(=O)N2[C@@H](Cc3ccc(O)cc3)C(=O)N(Cc3ccc(F)cc3F)[C@@H](CO)[C@@H]2N1C(=O)NCc1ccccc1 [Compound 82]
7.1 µM	CN(C)c1cccc(CN2C[C@H]3N(C(=O)CN(C)N3C(=O)NCc3ccccc3)[C@@H](Cc3ccc(O)cc3)C2=O)c1 [Compound 38]
10.7 ± 2.5 µM	CN1CC(=O)N2[C@@H](Cc3ccc(O)cc3)C(=O)N(Cc3cccc4c3nnn4C)C[C@@H]2N1C(=O)NCc1ccccc1 [Compound 76]
2.6 ± 0.3 µM	CCCN1CC(=O)N2[C@@H](Cc3ccc(O)cc3)C(=O)N(Cc3ccc(Cl)c4cccnc34)C[C@@H]2N1C(=O)NCc1ccccc1 [Compound 148]
8.1 ± 0.9 µM	C#CCn1cc2c(CN3C[C@H]4N(C(=O)CN(C)N4C(=O)NCc4ccccc4)[C@@H](Cc4ccc(O)cc4)C3=O)cccc2n1 [Compound 96]
19 ± 7.1 µM	CC(C)N(C)c1ccc(F)c([C@H](C)N2C[C@H]3N(C(=O)CN(C)N3C(=O)NCc3ccccc3)[C@@H](Cc3ccc(O)cc3)C2=O)c1 [Compound 65]
3.9 ± 0.3 µM	[2H]C([2H])(c1ccc(O)cc1)[C@H]1C(=O)N(Cc2cccc3ccccc23)C[C@H]2N1C(=O)CN(C)N2C(=O)NCc1ccccc1 [Compound 165]
3.5 ± 0.8 µM	C=CCN1CC(=O)N2[C@@H](Cc3ccc(O)cc3)C(=O)N(Cc3cccc4c3OCC4)C[C@@H]2N1C(=O)NCc1ccccc1 [Compound 205]
1.6 ± 0.4 µM	C=CCN1CC(=O)N2[C@@H](Cc3ccc(O)cc3)C(=O)N(Cc3ccc(OC)cc3)C[C@@H]2N1C(=O)NCc1ccccc1 [Compound 208]
1.7 ± 0.3 µM	C=CCN1CCN2[C@@H](Cc3ccc(O)cc3)C(=O)N(Cc3ccc(OC)cc3OC)C[C@@H]2N1C(=O)NCc1ccccc1 [Compound 213]
2.3 ± 0.2 µM	C=CCN1CC(=O)N2[C@@H](Cc3ccc(O)cc3)C(=O)N(Cc3ccc(F)cc3F)C[C@@H]2N1C(=O)NCc1ccc(Cl)c(Cl)c1 [Compound 179]
9.7 ± 1.7 µM	CC(C)N(C)c1cc([C@@H](C)N2C[C@H]3N(C(=O)CN(C)N3C(=O)NCc3ccccc3)[C@@H](Cc3ccc(O)cc3)C2=O)ccc1F [Compound 62]
